# Results reported in US10144742B2 (Millennium Pharmaceuticals, Inc., priority 2014, dated 2018).
# Tests used:
# hNAMPT protein = hNAMPT protein (Homo sapiens (Human), UniProt P43490); assay: NAMPT enzyme assay (TR-FRET/HTRF, BodiPY ligand, anti 6His-Tb); assay type: binding; settings: for inhibition at 1 µM: NAMPT inhibition at compound concentration 1 μM; for IC50: NAMPT inhibition, IC50 range class, read-out: IC50
# How it was run: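 Compound or DMSO was incubated for 1 h at room temperature, protected from light, with BodiPY ligand and hNAMPT labelled by terbium anti-6His antibody. The 520 nm to 486 nm emission ratio after 320 nm excitation gave inhibition versus vehicle, from which concentration-response curves yielded IC50.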
# PC3 cells = assay: PC3 growth inhibition (Cell-titer glo, 72 hours); assay type: cell-based; settings: Homo sapiens, PC-3; compound concentration 1.667 μM; PC3 cells, 72 hours, Cell-titer glo; read-out: Percent Inhibition (PC3 growth inhibition)
# How it was run: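 Compounds in AIM serum-free medium were applied for 72 h at 37 °C, 5% CO2 to PC3 cells plated overnight from RPMI1640 culture. Luminescence after 10 min CellTiter-Glo, normalised to DMSO, gave % viability at 1 μM or 1.667 μM, or GI50/LD50.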
# hNAMPT protein, sequence (P43490 whole entry): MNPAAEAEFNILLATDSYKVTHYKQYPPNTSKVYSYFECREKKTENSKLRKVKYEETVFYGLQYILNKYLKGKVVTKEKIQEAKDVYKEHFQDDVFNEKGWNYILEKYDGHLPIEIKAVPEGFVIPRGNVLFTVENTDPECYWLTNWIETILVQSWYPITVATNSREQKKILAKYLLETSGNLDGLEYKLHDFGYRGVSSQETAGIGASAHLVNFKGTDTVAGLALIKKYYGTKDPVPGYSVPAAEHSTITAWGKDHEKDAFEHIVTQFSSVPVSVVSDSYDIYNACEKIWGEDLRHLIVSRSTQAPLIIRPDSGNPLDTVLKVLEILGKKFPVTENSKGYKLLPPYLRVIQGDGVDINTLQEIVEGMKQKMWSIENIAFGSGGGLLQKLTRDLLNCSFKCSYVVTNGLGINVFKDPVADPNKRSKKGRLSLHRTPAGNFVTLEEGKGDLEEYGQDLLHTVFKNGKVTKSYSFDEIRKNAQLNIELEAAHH
SMILES,inhibition at 1 µM (hNAMPT protein; read-out: Percent Inhibition) [%],IC50 (hNAMPT protein) [µM],inhibition at 1.667 µM (PC3 cells) [%],"inhibition at 0.333 µM (hNAMPT protein; NAMPT inhibition at compound concentration 0.333 μM (data at 1 uM not available due to solubility limitations), read-out: Percent Inhibition) [%]"
"O=C(NCCCc1ncc[nH]1)c1ccc2nc(OC3CCCNC3)c(-c3ccc(F)cc3)nc2c1 (stereo not drawn) [Compound I-430, 3-(4-fluorophenyl)-N-[3-(1H-imidazol-2-yl)propyl]-2-(piperidin-3-yloxy)quinoxaline-6-carboxamide]",98,< 0.1,3,–
"O=C(NCCCc1ncc[nH]1)c1ccc2nc(-c3ccc(F)cc3)c(-c3ccc(Cl)c(F)c3)nc2c1 [Compound I-431, 3-(4-chloro-3-fluorophenyl)-2-(4-fluorophenyl)-N-[3-(1H-imidazol-2-yl)propyl]quinoxaline-6-carboxamide]",90,0.1 to 0.5,2,–
"O=C(NCCCc1ncc[nH]1)c1ccc2nc(-c3ccc(F)cc3)c(-c3cc(OC(F)(F)F)ccc3Cl)nc2c1 [Compound I-432, 3-[2-chloro-5-(trifluoromethoxy)phenyl]-2-(4-fluorophenyl)-N-[3-(1H-imidazol-2-yl)propyl]quinoxaline-6-carboxamide]",79,0.1 to 0.5,2,–
"Cc1ccc(-c2nc3cc(C(=O)NCCCc4ncc[nH]4)ccc3nc2-c2ccc(F)cc2)cc1C [Compound I-433, 3-(3,4-dimethylphenyl)-2-(4-fluorophenyl)-N-[3-(1H-imidazol-2-yl)propyl]quinoxaline-6-carboxamide]",79,0.1 to 0.5,3,–
"O=C(NCCCc1ncc[nH]1)c1ccc2nc(-n3cccn3)c(-c3ccc(F)cc3)nc2c1 [Compound I-434, 3-(4-fluorophenyl)-N-[3-(1H-imidazol-2-yl)propyl]-2-(1H-pyrazol-1-yl)quinoxaline-6-carboxamide]",76,0.1 to 0.5,3,–
"CC(C)Oc1nc2ccc(C(=O)NCCCc3ncc[nH]3)cc2nc1-c1ccc(F)c(Cl)c1 [Compound I-435, 3-(3-chloro-4-fluorophenyl)-N-[3-(1H-imidazol-2-yl)propyl]-2-isopropoxyquinoxaline-6-carboxamide]",93,< 0.1,0,–
"Nc1ccc(CCCNC(=O)c2ccc3nc(N4CCCCC4)c(-c4ccc(F)cc4)nc3c2)cn1 [Compound I-436, N-[3-(6-aminopyridin-3-yl)propyl]-3-(4-fluorophenyl)-2-(piperidin-1-yl)quinoxaline-6-carboxamide]",83,0.1 to 0.5,2,–
"CCOc1ccc(Cl)c(-c2nc3cc(C(=O)NCCCc4ncc[nH]4)ccc3nc2-c2ccc(F)cc2)c1 [Compound I-437, 3-(2-chloro-5-ethoxyphenyl)-2-(4-fluorophenyl)-N-[3-(1H-imidazol-2-yl)propyl]quinoxaline-6-carboxamide]",71,0.1 to 0.5,3,–
"O=C(NCCCc1ncc[nH]1)c1ccc2nc(OCC3CCCO3)c(-c3ccc(F)cc3)nc2c1 (stereo not drawn) [Compound I-438, 3-(4-fluorophenyl)-N-[3-(1H-imidazol-2-yl)propyl]-2-(tetrahydrofuran-2-ylmethoxy)quinoxaline-6-carboxamide]",99,< 0.1,2,–
"O=C(NCCCc1ncc[nH]1)c1ccc2nc(OCc3ccccc3)c(-c3ccc(F)cc3)nc2c1 [Compound I-439, 2-(benzyloxy)-3-(4-fluorophenyl)-N-[3-(1H-imidazol-2-yl)propyl]quinoxaline-6-carboxamide]",93,< 0.1,3,–
"CCOc1nc2ccc(C(=O)NCCCc3ncc[nH]3)cc2nc1-c1ccc(F)cc1 [Compound I-440, 2-ethoxy-3-(4-fluorophenyl)-N-[3-(1H-imidazol-2-yl)propyl]quinoxaline-6-carboxamide]",94,< 0.1,3,–
"O=C(NCCCc1cnccn1)c1ccc2nc(N3CCCCC3)c(-c3ccc(F)cc3)nc2c1 [Compound I-441, 3-(4-fluorophenyl)-2-(piperidin-1-yl)-N-[3-(pyrazin-2-yl)propyl]quinoxaline-6-carboxamide]",50,0.5 to 1,> 99,–
"O=C(NCCCc1ncc[nH]1)c1ccc2nc(OCCc3cn[nH]c3)c(-c3ccc(F)cc3)nc2c1 [Compound I-442, 3-(4-fluorophenyl)-N-[3-(1H-imidazol-2-yl)propyl]-2-[2-(1H-pyrazol-4-yl)ethoxy]quinoxaline-6-carboxamide]",> 99,< 0.1,3,–
"O=C(NCCc1ncc[nH]1)c1ccc2nc(-c3ccc(F)cc3)c(-c3ccc(Cl)s3)nc2c1 [Compound I-443, N-(2-(1H-imidazol-2-yl)ethyl)-3-(5-chlorothiophen-2-yl)-2-(4-fluorophenyl)quinoxaline-6-carboxamide]",–,0.1 to 0.5,11,57
"CC(C)c1nc2ccc(C(=O)NCCCc3ncc[nH]3)cc2nc1-c1ccc(F)cc1 [Compound I-444, 3-(4-fluorophenyl)-N-[3-(1H-imidazol-2-yl)propyl]-2-isopropylquinoxaline-6-carboxamide]",77,0.1 to 0.5,1,–
"Cc1ccc(C(F)(F)F)cc1-c1nc2cc(C(=O)NCCCc3ncc[nH]3)ccc2nc1-c1ccc(F)cc1 [Compound I-445, 2-(4-fluorophenyl)-N-[3-(1H-imidazol-2-yl)propyl]-3-[2-methyl-5-(trifluoromethyl)phenyl]quinoxaline-6-carboxamide]",91,< 0.1,2,–
"Cc1noc(C)c1COc1nc2ccc(C(=O)NCCCc3ncc[nH]3)cc2nc1-c1ccc(F)cc1 [Compound I-446, 2-[(3,5-dimethylisoxazol-4-yl)methoxy]-3-(4-fluorophenyl)-N-[3-(1H-imidazol-2-yl)propyl]quinoxaline-6-carboxamide]",> 99,< 0.1,2,–
"CCOc1cccc(-c2nc3cc(C(=O)NCCCc4ncc[nH]4)ccc3nc2-c2ccc(F)cc2)c1 [Compound I-447, 3-(3-ethoxyphenyl)-2-(4-fluorophenyl)-N-[3-(1H-imidazol-2-yl)propyl]quinoxaline-6-carboxamide]",99,< 0.1,2,–
"COc1ccc(-c2nc3cc(C(=O)NCCCc4ncc[nH]4)ccc3nc2-c2ccc(F)cc2)cc1 [Compound I-448, 2-(4-fluorophenyl)-N-[3-(1H-imidazol-2-yl)propyl]-3-(4-methoxyphenyl)quinoxaline-6-carboxamide]",67,0.1 to 0.5,2,–
"O=C(NCCCc1ncc[nH]1)c1ccc2nc(-c3ccc(F)cc3)c(-c3cc(F)c(F)c(F)c3)nc2c1 [Compound I-449, 2-(4-fluorophenyl)-N-[3-(1H-imidazol-2-yl)propyl]-3-(3,4,5-trifluorophenyl)quinoxaline-6-carboxamide]",82,0.1 to 0.5,3,–
